Measurements published in patent US9408888B2, “High affinity bivalent helically constrained peptide against cancer” (COUNCIL OF SCIENTIFIC AND INDUSTRIAL RESEARCH, priority 2011, dated 2016).
Each block holds one compound with its values, some of them ahead of it. Where a SMILES comes first, the peptide text is derived from it. Bridges are numbered along the chain shown (N, C = ends). Roman numbers before positions name the chains, in order. Where no end group is shown, it is not given here. [ ]: non-standard residue; d: D form. Aib = CC(C)(N)C(=O)O; Ahx = NCCCCCC(=O)O

Legend:
SK-MEL-5 cells = type: cell-based; details: 18 h
Experimental: FIG. 4. (A) Assay of cell viability using incorporation of ^3H-thymidine after treatment with different concentrations of SEQ ID No. 10 for 18 hrs. (B) Flow cytometry of SK-MEL5 cells before and after treatment with 10 microM SEQ ID No. 10 with DR6 tags at two branches, using Annexin V and Propidium Iodide (lower panel) and forward/side scatter (upper panel).
The effect of SEQ ID No. 10 on viability was also measured by ^3H thymidine uptake (FIG. 4 (A)). […] The apoptosis of SK-Mel5 cells was quantitated using flow cytometry. 49% of cells were determined to be apoptotic and 11% necrotic at 2 hrs using annexin V stain. Corresponding figures for 6 hrs were 57% and 14%, respectively (FIG. 4(B)). From the results presented here and analysis of growth promoting pathways described later-S100B appears to be a generalized growth promoter, when over-expressed.

[1] = Toxicity in mice, i.v. treatment; type: in vivo, mouse
Experimental: The effect of SEQ ID No. 10 was tested in a syngenic mouse model of melanoma. […] Histopathology of some key target organs after 8 days of treatment was normal, indicating no significant toxicity. […] Immuno-histochemistry of growth marker PCNA indicates complete loss of this antigen in the residual tumor mass upon treatment, indicating complete loss of proliferating cells (FIG. 7(C)).
Experiments were carried out under protocols approved by the Institutional Animal Ethics Committee and institutional guidelines for the proper use of animals in research were followed. National guidelines had been followed. C57BL/6J female mice (mean initial weight, 20 g) were kept in one mice in one cage at 19° C. to 23° C. with a 12 hour light/12 hour dark cycle. They had free access to water and food. To generate tumor, 1×10^6 B16F10 cells were mixed with Matrigel (BD bioscience) and inoculated S.C. in the right flank of 6 week-old mice. Tumors (typically 2 mm in diameter) were palpable 5 days after subcutaneous injection. Peptide treatments (50 mg/kg body weight) were administered by intravenous tail vein injection on the day tumors became apparent (day 0) and then days 1, 2, 3, 4, 5, 6 and 7. Control mice were treated only with saline vehicle. Mice were weighted, and tumor volumes were calculated with the following formula: π/6×larger diameter×(smaller diameter)^2.

S100B = target: T1, S100B (Homo sapiens, UniProt P04271); assay: Fluorescence anisotropy binding of N-terminal fluorescein labeled peptides to S100B
T1 sequence (P04271 1-92): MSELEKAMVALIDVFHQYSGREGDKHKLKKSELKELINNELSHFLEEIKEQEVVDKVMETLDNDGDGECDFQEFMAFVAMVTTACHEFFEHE
Excerpt: FIG. 2. (A) Table of some representative peptides synthesized which respectively include pM-53 (SEQ ID No. 6), pBN-53 (SEQ ID No. 7), pBDC-53 (SEQ ID No. 8), pBM-TRTK (SEQ ID No. 2), pBDC-TRTK (two SEQ ID No. 2's cross-linked together with BMH), and pBBD-TRTK (SEQ ID No. 11) and their dissociation constants. Binding isotherm of branch dimeric SEQ ID No. 3 (i.e., SEQ ID No. 11) with (B) S-100B and (C) S100P and (D) branch dimeric SEQ ID No. 5 (i.e., SEQ ID No. 12) with S100B. Fluorescein labeled, 5 nM branch dimeric SEQ ID No. 3 (i.e., SEQ ID No. 11) or branch dimeric SEQ ID No. 5 (i.e., SEQ ID No. 12) was titrated with increasing concentrations of S100B or S100P in 50 mM Tris-HCl buffer, pH 7.5, containing 50 mM NaCl and 10 mM CaCl2 at ambient temperatures which was 25±1 degree C. Anisotropy was determined at each point. The each point is averaging of at least three independent experiments. The line is best fit to a single site binding equation given in description of the invention.
Binding affinity of aib substituted p53 (SEQ ID No. 7) (and all other peptides) was estimated by fluorescence anisotropy using N-terminal fluorescein labeled peptides. […] Since S100B is a dimer, one possible way to enhance the binding is to synthesize a bivalent molecule, which can simultaneously bind to two subunits. SEQ ID No. 7 was dimerized with a properly designed cross-linker through inserted cysteine residues (SEQ ID No. 8). The C-terminal side of the two peptides (bound to two different subunits) comes fairly close and is separated by shallow groove allowing a cross-linker to fit. The length of the cross-linker was chosen such that it spans the separation between the two cysteine residues in the predicted structure.
Binding data of the several of these peptides are shown in FIG. 2 (A) and some of the corresponding binding isotherms are shown FIG. 2(B-D). […] Also synthesized was a mutant branched peptide (SEQ ID No. 12 which is a lysine branch dimeric form of SEQ ID No. 5) bearing two mutations in the interacting residues. […] This peptide will be used as a control in the cellular experiments to be described later.

SK-MEL5 cells = assay: Phase contrast microscopy of SK-MEL5 cells (shape change, blebbing, apoptosis); type: cell-based
Excerpt: FIG. 3. Phase contrast microscopy of SK-MEL5 cells (A) 2 hrs after treatment with 10 microM SEQ ID No. 10; (B) 18 hrs after treatment with 20 microM branch dimeric SEQ ID No. 5 (i.e., SEQ ID No. 12); (C) 2 hr after treatment with branch dimeric SEQ ID No. 3 (i.e., SEQ ID No. 11) (without the cell penetration tag) and (D) control.
FIG. 6. (A) Phase contrast microscopy of SK-MEL5 cells (Upper panel) 10 microM SEQ ID No. 10 with DR6 tags at two branches (Lower panel), and 10 microM pBBDR-TRTK (i.e., SEQ ID No. 10), pre-treated with 10 microM pifithrin-micro, 1 hr after treatment (Upper panel). (B) Confocal microscopic images of merged p53 (green) and mitotracker (red), Top untreated and bottom, 1 h after treatment with SEQ ID No. 10.
The effect of all the synthesized peptides on several melanoma cell lines which are known to over-express S100B was investigated.
Given the rapidity of apoptosis initiation, the examination of the recently reported direct mitochondrial translocation pathway was also done by the method if Vaseva and Moll, 2009. It has been reported that a small molecule pifithrin-micro blocks this pathway without affecting the canonical transcription-dependent pathway of p53 initiated apoptosis and a close analog, pifithrin-α blocks the canonical pathway without affecting the direct mitochondrial pathway (Strom et al., 2006). […]

[2] = upto 50 mg/Kg body weight, i.v.

Compound: CC[C@H](C)[C@H](NC(=O)[C@H](CCCCN)NC(=O)[C@@H](NC(=O)[C@H](CCCNC(=N)N)NC(=O)[C@@H](NC(=O)[C@@H](CCCNC(=N)N)NC(=O)[C@@H](CCCNC(=N)N)NC(=O)[C@@H](CCCNC(=N)N)NC(=O)[C@@H](CCCNC(=N)N)NC(=O)[C@@H](CCCNC(=N)N)NC(=O)[C@H](N)CCCNC(=N)N)[C@@H](C)O)[C@@H](C)O)C(=O)N[C@@H](CC(=O)O)C(=O)N[C@@H](Cc1c[nH]c2ccccc12)C(=O)NC(C)(C)C(=O)N[C@@H](CCCCN)C(=O)N[C@H](C(=O)N[C@@H](CC(C)C)C(=O)NC(C)(C)C(=O)N[C@@H](CCCCN)C(=O)NCCCCCC(=O)NCCCC[C@H](NC(=O)CCCCCNC(=O)[C@H](CCCCN)NC(=O)C(C)(C)NC(=O)[C@H](CC(C)C)NC(=O)[C@@H](NC(=O)[C@H](CCCCN)NC(=O)C(C)(C)NC(=O)[C@H](Cc1c[nH]c2ccccc12)NC(=O)[C@H](CC(=O)O)NC(=O)[C@@H](NC(=O)[C@H](CCCCN)NC(=O)[C@@H](NC(=O)[C@H](CCCNC(=N)N)NC(=O)[C@@H](NC(=O)[C@@H](CCCNC(=N)N)NC(=O)[C@@H](CCCNC(=N)N)NC(=O)[C@@H](CCCNC(=N)N)NC(=O)[C@@H](CCCNC(=N)N)NC(=O)[C@@H](CCCNC(=N)N)NC(=O)[C@H](N)CCCNC(=N)N)[C@@H](C)O)[C@@H](C)O)[C@@H](C)CC)[C@@H](C)CC)C(N)=O)[C@@H](C)CC [SEQ ID No. 10, ^DR6 TRTKIDWBKILBKAhxKAhxKBLIKBWDIKTRT-^DR6]
IC50 (SK-MEL-5 cells): < 2000 nM | histopathology of key target organs ([1]; after 8 days of treatment, 50 mg/Kg): normal | lethality [1, 2]: non-lethal | toxicity [1, 2]: no demonstrable toxicity

Kd (S100B; fluorescence anisotropy, 50 mM Tris-HCl pH 7.5, 50 mM NaCl, 10 mM CaCl2, 25 degree C, read-out: Kd (dissociation constant) for S100B): 135 ± 18.5 nM
Compound: CC[C@H](C)[C@H](NC(=O)[C@H](CCCCN)NC(=O)C(C)(C)NC(=O)[C@H](C)NC(=O)[C@H](CC(=O)O)NC(=O)[C@H](C)NC(=O)[C@H](CCCCN)NC(=O)[C@@H](NC(=O)[C@H](CCCNC(=N)N)NC(=O)[C@@H](N)[C@@H](C)O)[C@@H](C)O)C(=O)N[C@@H](CC(C)C)C(=O)NC(C)(C)C(=O)N[C@@H](CCCCN)C(=O)NCCCCCC(=O)NCCCC[C@H](NC(=O)CCCCCNC(=O)[C@H](CCCCN)NC(=O)C(C)(C)NC(=O)[C@H](CC(C)C)NC(=O)[C@@H](NC(=O)[C@H](CCCCN)NC(=O)C(C)(C)NC(=O)[C@H](C)NC(=O)[C@H](CC(=O)O)NC(=O)[C@H](C)NC(=O)[C@H](CCCCN)NC(=O)[C@@H](NC(=O)[C@H](CCCNC(=N)N)NC(=O)[C@@H](N)[C@@H](C)O)[C@@H](C)O)[C@@H](C)CC)C(N)=O [SEQ ID No. 12, TRTKADABKILBKAhxKAhxKBLIKBADAKTRT-(I5A,W7A)] (I: H-TRTKADA[Aib]KIL[Aib]K[Ahx]K-NH2 / II: H-TRTKADA[Aib]KIL[Aib]K[Ahx]; amide I:15-II:C; N-terminus assumed)

Compound: NS(=O)(=O)C#Cc1ccccc1 [pifithrin-μ, reference compound]
effect of pifithrin-μ on peptide-induced apoptosis (SK-MEL5 cells; 10 microM pifithrin pre-treatment, 10 microM peptide, 1 hr): blebbings are not seen

dissociation constant for S100B, in words (S100B; fluorescence anisotropy): micromolar range
Compound: QSTBRHBKLMFKTBG (QST[Aib]RH[Aib]KLMFKT[Aib]G-NH2) [SEQ ID No. 7, P53 Aib substituted monomer peptide]
binding to S100B relative to parent peptide, in words (S100B; fluorescence anisotropy): somewhat stronger than the unmodified peptide

Compound: SEQ ID No. 2 with DR6 tags at two branches: pBM-TRTK dimerised with BMH crosslinker and tagged with hexa-arginine (TRTKIDW[Aib]KIL[Aib]GGGCG-NH2; also: dimer through Cys via BMH crosslinker, DR6 (hexa-arginine) tags on two branches, place not given here)
potency in inducing apoptosis relative to SEQ ID No. 10 (SK-MEL5 cells; SK-MEL5): nearly as potent as SEQ ID No. 10

Compound: SEQ ID No. 2: pBM-TRTK dimerised through cysteine residues with BMH cross-linker (TRTKIDW[Aib]KIL[Aib]GGGCG-NH2; also: dimer through Cys via BMH crosslinker)
binding to S100B relative to parent peptide, in words (S100B; fluorescence anisotropy): approximately an order of magnitude tighter binding

increase in affinity for S100B upon dimerization (S100B; cross-linked dimer versus monomer SEQ ID No. 7): approximately 15 fold
Compound: SEQ ID No. 8: GCGG Modified pBM53 dimerised with BMH crosslinker; monomer QSTBRHBKLMFKTBGGGCG (QST[Aib]RH[Aib]KLMFKT[Aib]GGGCG-NH2; also: dimer via BMH crosslinker)
